According to ChEMBL document CHEMBL1201862, “PubChem BioAssay data set” (2004):
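Cells were grown in 96-well plates and exposed to each compound for 48 hours at five concentrations; endpoints were interpolated linearly between bracketing concentrations, or set to the highest concentration if not reached. The concentration for 50% growth inhibition is given as GI50.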 The source made the active and inactive calls. Rule as the data show it: active = GI50 up to about 1.1 µM and inactive = higher.

How the values were obtained:
Test in all cases: growth of human tumour cells (NCI), 48 h
[1] = test system: SK-MEL-2
[2] = test system: HOP-62
[3] = test system: 786-0
[4] = test system: TK-10
[5] = test system: UACC-62
[6] = test system: SF-539
[7] = test system: RXF 393
[8] = test system: DU-145
[9] = test system: SF-295
[10] = test system: KM12
[11] = test system: Hs-578T
[12] = test system: CAKI-1
[13] = test system: SF-268
[14] = test system: SNB-75
[15] = test system: U-251
[16] = test system: M14
[17] = test system: UACC-257
[18] = test system: HCT-116
[19] = test system: MDA-MB-435
[20] = test system: SNB-19
[21] = test system: Malme-3M
[22] = test system: HOP-92
[23] = test system: ACHN
[24] = test system: SR
[25] = test system: SK-MEL-5
[26] = test system: HT-29
[27] = test system: NCI-H460
[28] = test system: SK-OV-3
[29] = test system: UO-31
[30] = test system: IGROV-1
[31] = test system: K562
[32] = test system: EKVX
[33] = test system: OVCAR-3
[34] = test system: CCRF-CEM
[35] = test system: MCF7
[36] = test system: PC-3
[37] = test system: MDA-MB-231
[38] = test system: COLO 205
[39] = test system: OVCAR-5
[40] = test system: NCI-H226
[41] = test system: HCC 2998
[42] = test system: SN12C
[43] = test system: NCI-H522
[44] = test system: HL-60
[45] = test system: HCT-15
[46] = test system: NCI-H23
[47] = test system: RPMI-8226
[48] = test system: A549
[49] = test system: T47D
[50] = test system: SW-620
[51] = test system: MDA-N
[52] = test system: A498
[53] = test system: OVCAR-8
[54] = test system: MOLT-4
[55] = test system: NCI/ADR-RES
[56] = test system: LOX IMVI

For `Oc1cc(-c2cccc(OC(F)(F)F)c2)nc2ccc(N3CCCC3)cc12`, the GI50 [1] was 0.127 nM (active), the GI50 [2] was 0.441 nM (active) and the GI50 [3] was 0.14 nM (active). For the same compound, the GI50 [4] was 4.57 nM (active), the GI50 [5] was < 0.1 nM (active) and the GI50 [6] was 0.147 nM (active). The GI50 [7] was 0.116 nM (active), the GI50 [8] was 0.316 nM (active) and the GI50 [9] was < 0.1 nM (active). For the same compound, the GI50 [10] was 0.129 nM (active), the GI50 [11] was 10 nM (active) and the GI50 [12] was 10 nM (active). The GI50 [13] was 0.306 nM (active), the GI50 [14] was < 0.1 nM (active) and the GI50 [15] was < 0.1 nM (active). For the same compound, the GI50 [16] was 0.12 nM (active), the GI50 [17] was < 0.1 nM (active) and the GI50 [18] was 0.121 nM (active). The GI50 [19] was < 0.1 nM (active), the GI50 [20] was 0.18 nM (active) and the GI50 [21] was 0.114 nM (active). The GI50 [22] was 73.1 nM (active), the GI50 [23] was 0.622 nM (active) and the GI50 [24] was < 0.1 nM (active). For the same compound, the GI50 [25] was 0.209 nM (active), the GI50 [26] was 0.217 nM (active) and the GI50 [27] was 2.5 nM (active). The GI50 [28] was 0.117 nM (active), the GI50 [29] was 0.555 nM (active) and the GI50 [30] was 1.31 nM (active). For the same compound, the GI50 [31] was < 0.1 nM (active), the GI50 [32] was 31 nM (active) and the GI50 [33] was < 0.1 nM (active). For the same compound, the GI50 [34] was 0.12 nM (active), the GI50 [35] was 33.7 nM (active) and the GI50 [36] was 0.318 nM (active). The GI50 [37] was 1.56 nM (active), the GI50 [38] was 3.03 nM (active) and the GI50 [39] was 0.297 nM (active). The GI50 [40] was 0.142 nM (active), the GI50 [41] was 0.547 nM (active) and the GI50 [42] was 0.41 nM (active). The GI50 [43] was 0.376 nM (active), the GI50 [44] was < 0.1 nM (active) and the GI50 [45] was 0.4 nM. For the same compound, the GI50 [46] was 19.1 nM (active), the GI50 [47] was 0.261 nM (active) and the GI50 [48] was 10.3 nM (active). For the same compound, the GI50 [49] was 26300 nM (inactive), the GI50 [50] was 0.19 nM (active) and the GI50 [51] was < 0.1 nM (active). For the same compound, the GI50 [52] was 0.322 nM (active), the GI50 [53] was 0.426 nM (active) and the GI50 [54] was 0.335 nM (active). For the same compound, the GI50 [55] was 0.16 nM (active) and the GI50 [56] was 0.205 nM (active).
